Consider 1 compound from publication PMC9822434, “Estradiol-Based Salicylaldehyde (Thio)Semicarbazones and Their Copper Complexes with Anticancer, Antibacterial and Antioxidant Activities” (Molecules, 2022).

The subject of data set [1] is S. aureus ATCC 25928. The experiment in a line: MIC determination. Format: cell-based, Staphylococcus aureus. The note with it: Gram-positive S. aureus ATCC 25928; Mueller Hinton Broth. Summed up: (§1)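 Broth microdilution in Mueller Hinton Broth, two-fold serial dilutions starting at 100 µM compound (from 10 mM stocks in 90% DMSO). Each well inoculated with a 10^−4 dilution of overnight culture. MIC read per prior lab method.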

For data set [2] the following is noted: Cu(II) complex (25 µM) with GSH (1.25 mM), pH 7.4, anaerobic; cited from earlier work.
The subject of data set [3] is MCF-7 breast cancer cell line. Set-up: method as in doi:10.1039/D0NJ01070G, PMID 34453218, PMID 33951554. To be noted: cited from earlier work.
The subject of data set [4] is A549. The experiment in a line: MTT cytotoxicity assay. Format: cell-based, human. To be noted: 24 h incubation time. Summed up:
(§2)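 Cells were exposed 24 h to 0–20 µM (2.5, 5, 10, 15, 20 µM) Cu(II) complexes, ligands or metal salts (equimolar ligand–CuCl2), then 0.5 mg/mL MTT for 1 h at 37 °C. Formazan was dissolved in DMSO and read at 570 nm; viability is relative to untreated control as 100%.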
A general note: Tetrazolium assays rely on reduction of a dye to a coloured formazan, in cell work by metabolically active cells.

Data set [5] deals with DU-145. The experiment in a line: MTT cytotoxicity assay. Format: cell-based, human. The note with it: DU-145, MTT, 24 h incubation time. Summed up:
as §2

Data set [6] has as its system MCF-7 KCR. The data set is described as follows: MTT cytotoxicity assay. It counts as cell-based, human. The note with it: 24 h incubation time. The essentials: as §2
Data set [7] relates to MCF-7. The experiment in a line: MTT cytotoxicity assay. It counts as cell-based, human. To be noted: MCF-7, MTT, 24 h incubation time. Summed up:
as §2

Data set [8] relates to E. faecalis ATCC 29212. The data set is described as follows: MIC determination. It counts as cell-based, Enterococcus faecalis. The note with it: Gram-positive E. faecalis ATCC 29212; Mueller Hinton Broth. Summed up:
as §1

Data set [9] deals with A549, MCF-7, MCF-7 KCR and DU-145 cells. The data set is described as follows: γH2AX immunostaining (DNA double-strand breaks). The note with it: 20 µM, 3 h. It counts as cell-based, human. How it is done: In order to determine the degree of DNA damage induced by the treatments, DNA double-strand breaks were visualized by γH2AX immunostaining. For this, 1 × 10^5 cells/well were seeded onto coverslips in 24-well plates. […] Then, cells were fixed with 4% formaldehyde (Molar Chemicals, Halásztelek, Hungary), permeabilized with 0.3% Triton-X-100 (Calbiochem, Merck Millipore, Darmstadt, Germany) and were blocked using 5% bovine serum albumin (BSA) (Sigma-Aldrich, St. Louis, MO, USA). Then, the samples were incubated with anti-γH2AX antibody (Thermo Fisher Scientific, Waltham, MA, USA) in 1:300 dilution followed by Alexa 488 fluorophore-conjugated goat anti-mouse secondary antibody (Abcam, Cambridge, UK) in 1:600 dilution. The fluorescence intensity of the stained samples was detected by an Olympus FV10i confocal microscope.

For data set [10] the following is noted: cited from earlier work.
The format of data set [11] is physicochemical. The note with it: cligand = 20 µM. The essentials:
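UV–vis pH-metric titrations at 25.0 ± 0.1 °C, I = 0.10 M KCl, 30% (v/v) DMSO/H2O under argon; ligand 20 μM, pH 2.0–12.5, alone or with 1 or 0.5 equiv. Cu(II). Spectra 200–800 nm, 2 cm path; pKa, overall stability constants (β) and species spectra fitted with PSEQUAD.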

A short description of data set [12]: DPPH free radical scavenging assay. Summed up: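 DPPH at 50 µM final mixed with compound (5–50 µM final) in ethanol at 25.0 ± 0.1 °C in tandem cuvette, read spectrophotometrically. Antioxidant activity percentage, IC50 (concentration reducing 50% of DPPH) and Trolox equivalent capacity derived; Trolox as positive control.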
Background: Loss of DPPH colour is used to gauge radical scavenging.

The mark [13] stands for this setting: 30% (v/v) DMSO/H2O, T = 25.0 °C, I = 0.1 M (KCl).

The term MIC denotes the lowest concentration that inhibits growth of the organism. The term IC50 denotes the point on the concentration scale where inhibition reaches its midpoint. Regarding `CC12CCC3c4cc(C=NNC(N)=S)c(O)cc4CCC3C1CCC2=O` (centres unmarked) [estrone-TSC, reference compound], the MIC in data set [1] and in [8] was over 100 µM throughout. Also, the kobs in data set [2] is on record as 0.13 ^3 min^−1. Further, the IC50 was 6.4 µM in [3]; 16.7 ± 1.03 µM in [4]; over 20 µM in data set [5]; over 20 µM in data set [6]; over 20 µM in [7]; 17.8 µM in data set [12] (in ethanol, T = 25 °C, cDPPH = 50 µM, ccompound = 5−50 µM). Besides, the “DNA double-strand breaks (γH2AX) vs untreated control cells” value in data set [9] is reported as “None of these treatments caused a higher degree of DNA damage”. In addition, the “logβ [CuLH−1]” value in data set [10] (setting [13]) was 9.44 ^2. For the same compound, the “logβ [CuL]+” value in [10] (setting [13]) is given as 13.18 ^2. For the same compound, the pCu7.4 in data set [10] (pH 7.4, cCu(II) = 20 µM, cligand = 20 µM) was 11.9 ^2. Moreover, the pCu5.0 in [11] (calculated at pH 5.0, cCu(II) = 20 µM) is given as 7.7. For the same compound, in [11] (estimated at pH 6.0, cCu(II) = 20 µM), the pCu6.0 is 9.2. For the same compound, the “TEAC (Trolox equivalent antioxidant capacity)” value in data set [12] (DPPH assay in ethanol, 25 °C) turned out to be 0.7. Moreover, the “% Scavenging Effect” value in data set [12] (DPPH:compound = 1:1 ratio after 30 min, ethanol, 25 °C) amounted to 49.8%.
